{
  "source": "patent US20240344082A1",
  "about": "“VIRAL […] USE IN ENHANCING T-CELL PRIMING DURING VACCINATION” (GeoVax, Inc., priority 2021, published 2024)",
  "key": {"[1]": {"system": "splenic PyCS-specific, IFN-γ-secreting CD8+ T cells", "design": "species or system mice", "conditions": "mouse, in vivo, sc"}, "[2]": {"system": "antigen-specific CD8+ T-cell expansion", "conditions": "in combination with adenovirus-based or irradiated sporozoite-based malaria vaccine; immune-competent mice; cited from earlier work"}},
  "data": [
    {"sequence": "CRRTSTGQISTLRVNITAPLSQ [LD01, synthetic peptide used as positive control]", "values": [
      {"measurement": "antigen-specific CD8+ T cell numbers relative to AdPyCS alone", "setting": "[1]", "value": "significantly increased"},
      {"measurement": "antigen-specific CD8+ T-cell expansion", "setting": "[2]", "value": "enhances"}
    ]}
  ]
}
